Test results from publication PMC10449632, “Structural basis for translation inhibition by the glycosylated drosocin peptide” (Nature Chemical Biology, 2023).
No end group written: not given here. *: point of attachment. αGalNAc = CC(=O)N[C@@H]1[C@@H](O)[C@@H](O)[C@@H](CO)O[C@@H]1*

Tests used:
[1] = system: E. coli SQ110 A2059G; experiment: Antibiotic susceptibility (growth) assay, E. coli SQ110 A2059G; format: cell-based, Escherichia coli; conditions: A2059G mutation; LB medium; 5, 10, 30 μM
Source text: (§1) Strains E. coli Keio wild-type and E. coli Keio ΔsbmA used from the Keio knockout collection (Horizon, https://horizondiscovery.com). Wild-type E. coli SQ110 (ΔrrnGADBHC(ptRNA67))[47] and SQ171 (ΔrrnGADEHBC(pKK3535, ptRNA67))[47] strains and related mutants E. coli SQ110 A2059G and E. coli SQ171 A2503G were obtained from the previous Api137 study. E. coli strains SQ171 bearing A752G, U2609C and A752G:U2609C mutations[43] and E. coli SQ171 U2609G[48] were generated previously.
(§2) The susceptibility of E. coli strains to compounds was evaluated by monitoring the bacterial growth in presence of increasing concentrations of the compound of interest. […] Values measured from wells containing just the medium were used as a blank. The growth in each well was monitored by measuring the OD600 every 10 minutes for a total of 20 hours at 37 °C with shaking using a plate reader (Tecan Infinite 200 PRO). The inhibition resulting from a compound’s concentration was evaluated by normalizing the OD600 at t = 12 hours (corresponding to the end of the log phase) from the treated culture to the untreated one. […] For each concentration, the standard deviation was calculated, taking into account each single replica and its specific technical error from the plate reader.

[2] = system: ribosomes at the stop codon of MLIF-UAA mRNA in the presence of RF2; experiment: Toeprinting assay on MLIF*-mRNA with RF2; format: biochemical, Escherichia coli; conditions: Fig 1h, RF2 (10X), 30 μM compound, plotted values
Procedure: To ascertain which step during protein synthesis is affected by drosocin, we performed toeprinting assays, where reverse transcription is used to monitor the position of ribosomes on a defined mRNA[34].
Toeprinting reactions were performed as described previously. In brief, reactions were performed with 6 μl of PURExpress ΔRF123 in vitro protein synthesis system (NEB) in the presence of 1× RF3 and either 1× or 10× of RF1 or RF2 (relative to the manufacturer’s recommendation). The reactions were carried out on an MLIF-UAA-toeprint template (5′-[…]-3′, ORF start codon and stop codon are underlined bold), containing T7 promoter, a ribosome binding site, an MLIF-coding ORF and the NV1* primer binding site. The template is a version of the ErmBL template with a truncated ORF and addition of a isoleucine coding codon at the third position in the ORF. The template was generated by polymerase chain reaction of two overlapping 77-nt- and 78-nt-long primers. The reactions contained 30 ng of the MLIF-UAA-toeprint DNA template. The reactions were supplemented with Api137, thiostrepton or one of the drosocin derivates as specified. The transcription–translation reactions were incubated for 15 minutes at 37 °C. The reverse transcription on the MLIF-short-UAA toeprint template was carried out using AMV RT and primer NV*1-Alexa 647 (5′-[…]-3′). The transcription–translation reactions were incubated with AMV RT and NV*1-Alexa 647 for 20 minutes at 37 °C. mRNA degradation was carried out by the addition of 1 µl of 5 M NaOH. The reactions were neutralized with 0.7 µl of 25% HCl, and nucleotide removal was performed with the QIAquick Nucleotide Removal Kit (Qiagen). The samples were dried under vacuum for 2 hours at 60 °C for subsequent gel electrophoresis. The 6% acrylamide gels were scanned on a Typhoon scanner (GE Healthcare).

[3] = system: E. coli SQ171 A2503G; experiment: Antibiotic susceptibility (growth) assay, E. coli SQ171 A2503G; format: cell-based, Escherichia coli; conditions: A2503G mutation; LB medium; 5, 10, 30 μM
Source text: as §1, §2

[4] = system: E. coli SQ171 A752G; experiment: Antibiotic susceptibility (growth) assay, E. coli SQ171 A752G; format: cell-based, Escherichia coli; conditions: relative to no compound, mean of 3 replicas
Source text: In addition, we also used a strain with a U2609C–A752G double mutation, which would be predicted to restore Watson–Crick base pairing, and with three hydrogen bonds could possibly make breaking the base pair harder than with the canonical two hydrogen bonds for the A–U base pair. As a control, we also tested Dro that lacks the α-D-GalNAc modification, which we predict (assuming that Dro binds analogously to Dro1) should not interact with U2609 and, therefore, not be influenced by the conformation of the U2609–A752 base pair.
as §1
The susceptibility of E. coli strains to compounds was evaluated by monitoring the bacterial growth in presence of increasing concentrations of the compound of interest. In brief, bacteria were inoculated in a total volume of 100 μl of medium contained in a well of a 96-well microplate (round bottom, with cap, sterile; Sarstedt). The medium used was either LB, as rich medium, or ATCC medium (778 Davis and Mingioli glucose minimal medium), as minimal medium. Before inoculation, bacteria were grown up to exponential phase and then inoculated into the culture mix, containing selective antibiotic if necessary, with an initial optical density at 600 nm (OD600) of 0.05. Values measured from wells containing just the medium were used as a blank. The growth in each well was monitored by measuring the OD600 every 10 minutes for a total of 20 hours at 37 °C with shaking using a plate reader (Tecan Infinite 200 PRO). The inhibition resulting from a compound’s concentration was evaluated by normalizing the OD600 at t = 12 hours (corresponding to the end of the log phase) from the treated culture to the untreated one. For each compound, the concentrations tested were 5 μM, 10 μM and 30 μM. Each single titration assay was done in triplicate with individually prepared culture mixes. For each concentration, the standard deviation was calculated, taking into account each single replica and its specific technical error from the plate reader.

Row | Substance | resistance of mutant compared to the wild-type strain [1] | Relative stop band intensity signal [2] | resistance of mutant compared to the wild-type strain [3] | OD600 at t = 12 h, Normalized, Average ([4]; 5 μM) [%] | OD600 at t = 12 h, Normalized, Average ([4]; 30 μM) [%]
1 | Dro1: naturally occurring drosocin carrying monosaccharide α-D-GalNAc attached to Thr11 (GKPRPYSPRPT(αGalNAc)SHPRPIRV; UniProt P36193 22-40, looked up) | more resistant | 0.1899 | more resistant | 70 | 7
2 | Dro: unmodified drosocin, 19 amino acid proline-rich antimicrobial peptide lacking O-glycosylation (GKPRPYSPRPTSHPRPIRV; Drosocin; UniProt P36193 22-40, looked up) | – | 0.1232 | – | 84 | 59
